Laboratory results published in patent publication US20260136597A1, “PHARMACEUTICAL COMPOSITION FOR PREVENTING OR TREATING A PERIODONTAL DISEASE OR DISLOCATED TRAUMATIC TOOTH” (HYSENSBIO Co., Ltd., priority 2020, published 2026).

Columns and labels:
[1] = system: PERIOSTIN; test: Real-time PCR, periostin gene expression in human periodontal ligament cells; assay type: cell-based; conditions: hPDL cells, average of three experiments
Source text: Periostin is a protein first discovered in a periodontal ligament and periosteum of a bone, and periostin is expressed in the periodontal ligament and mesenchymal of the developing tooth and is known to be involved in cell adhesion. According to several recent studies, periostin is an important regulator of periodontium formation, promotes collagen fiber production and migration of fibroblast and osteoblast, and it is known to play a pivotal role in the regeneration of periodontal ligament and alveolar bone after periodontal surgery to treat periodontal disease. Therefore, the effect of a peptide of Example 1 on the expression of periostin which is a marker gene for a periodontal ligament differentiation, and the type 3 collagen fiber gene (COL3) was confirmed.

[2] = system: CAP; conditions: hPDL cells; real-time PCR; average of three experiments
Method: Human periodontal ligament cells (hPDL cells) were isolated from periodontal ligament tissues from the wisdom teeth of 10 adults (18-22 years old) at Seoul National University Dental Hospital. Specifically, all experiments were performed with the consent of the patient after obtaining approval from the Hospital's Institutional Review Board, a periodontal ligament tissue attached to the root of a wisdom tooth was isolated and cut into double-sided pieces, placed in a 60 mm dish, and covered with a cover slip, and then cultured in Dulbecco's […] Eagle's Medium.
Total RNA from human periodontal ligament cells was isolated using a TRIzol reagent. cDNA was synthesized using 2 μg of total RNA, 1 μl of reverse transcriptase, and 0.5 μg of oligo (dT). cDNA of synthesized human periodontal ligament cells was used for a real-time polymerase chain reaction using primers shown in Table 2 below. A real-time polymerase chain reaction was performed in ABI PRISM 7500 sequence detection system (Applied Biosystems) using SYBR GREEN PCR Master Mix (Takara, Japan). The real-time polymerase chain reaction was performed at 94° C., 1 min; 95° C., 15 sec-60° C., 34 sec was performed under the condition of repeating 40 cycles. Results were analyzed using a comparative cycle threshold (CT) method.
Bone sialoprotein (BSP) and dentin matrix protein 1 (DMP1) genes are used as markers for the differentiation of osteoblast and cementoblast and are known as important genes for the calcification of a bone and cementum. In addition, a CAP (cementum attachment protein) gene is expressed in differentiated cementoblast and is known as a gene involved in the cementum attachment of a periodontal ligament fiber bundle.

[3] = system: BSP; test: Real-time PCR, BSP gene expression in human periodontal ligament cells; assay type: cell-based; conditions: hPDL cells, average of three experiments
Method: Human periodontal ligament cells (hPDL cells) were isolated from periodontal ligament tissues from the wisdom teeth of 10 adults (18-22 years old) at Seoul National University Dental Hospital. Specifically, all experiments were performed with the consent of the patient after obtaining approval from the Hospital's Institutional Review Board, a periodontal ligament tissue attached to the root of a wisdom tooth was isolated and cut into double-sided pieces, placed in a 60 mm dish, and covered with a cover slip, and then cultured in Dulbecco's degenerated Eagle's Medium.

[4] = system: three-wall periodontal defect; test: Periodontium regeneration in periodontium damage animal model, histological evaluation; assay type: in vivo, beagle dogs; conditions: beagle dog, 3 months
Method: Four beagle dogs (12-16 kg; […]) were anesthetized by inhalation of Geloran, intravenously injected with Zoletil (5 mg/kg) and Xylazine (0.2-0.5 mg/kg), and then treated with Lidocaine (Lidocaine 2% with 1:80,000 epinephrine). The 4th premolar tooth and the 2nd molar tooth were extracted from the mandible of the beagle dog, and then the dog waited for healing for 3 months. After 3 months of healing, three-wall periodontal defect was induced on distal and mesial surfaces of a 1st molar tooth. Then, a periodontal damage of 4×4×4 mm was formed with the buccal and distal bones remaining around the tooth root, the root alveolar bone is securely removed, tooth root planing was performed using a curette, and then an incisor groove was formed using a ½ round bur. Next, an experimental group was transplanted with a collagen sponge (a peptide solution obtained by dissolving a peptide in physiological saline at a concentration of 1 μg/μl was prepared, 50 μl of a peptide solution was added to the EP tube, and then was soaked for 5 minutes to prepare the collagen sponge) including a 50 μl of peptide (SEQ ID NO: 16 of group 2) prepared in Example 1 at a defect region, After the defect, only a negative control (NC) without any treatment and a collagen sponge (prepared by soaking a collagen sponge in 50 μl of physiological saline for 5 minutes) was placed on the inner bone wall of a bone defect and a transplanted negative control (NC+Plug) was sacrificed 3 months later, and histological evaluation was performed. After 3 months, a beagle dog was sacrificed by administering an excessive amount (90-120 mg/kg) of pentobarbital. A tooth of the beagle dog was extracted, fixed with 10% formalin, and then calcium was removed by adding 5% formic acid, molded, and embedded in paraffin, to obtain a tissue section with a thickness of 5 μm. The obtained tissue section was stained with hematoxylin and eosin or collagen stained (Masson's Trichrome Staining) to confirm periodontal ligament regeneration and then analyzed using by an optical microscope equipped with a digital camera (LEICA ICC50 camera, Germany). After extraction of a 4th premolar tooth and a 2nd molar tooth from the mandibles of 4 beagle dogs, they waited for 3 months to heal, and After 3 months of healing, the 3-mural periodontal defect was induced in distal and mesial surfaces of a 1st molar tooth. Then, periodontium damage of 4×4×4 mm was formed with the buccal and distal bones remaining around the tooth root, the root alveolar bone is securely removed, tooth root planing was performed using a curette, and then an incisor groove was formed. Next, the experimental group transplanted a collagen sponge containing 50 μg of the peptide (SEQ ID NO: 16) of Example 1 to the defect region, and after the defect, a negative control (NC) without any treatment and control (NC+Plug) transplanted by placing only a collagen sponge on the inner bone wall of the bone defect was sacrificed 3 months later for histological evaluation.

[5] = collagen sponge with 50 μg peptide, Masson's trichrome stain, FIG. 6
[6] = collagen sponge with 50 μg peptide, hematoxylin/eosin, FIG. 5

Sequence | PERIOSTIN gene expression, relative mRNA expression level compared to the control (Average) [1] | CAP gene expression, relative mRNA expression level compared to the control (Average) [2] | BSP gene expression, relative mRNA expression level compared to the control (Average) [3] | other results
KYKQRKRSYK [SEQ ID NO 10] | 2.811 | 2.811 | 2.811 | 
KYKQKKRSYK [SEQ ID NO 15] | 2.620 | 2.620 | 2.620 | 
KYKQRKKNYK [SEQ ID NO 1] | 2.092 | 2.092 | 2.092 | 
KYKQRKRNYK [SEQ ID NO 2] | 2.361 | 2.361 | 2.361 | 
KYKQRRRSYK [SEQ ID NO 12] | 2.211 | 2.211 | 2.211 | 
KYKQKRKNYK [SEQ ID NO 6] | 2.705 | 2.705 | 2.705 | 
KYKQRRKSYK [SEQ ID NO 11] | 2.362 | 2.362 | 2.362 | 
KYKQKRRNYK [SEQ ID NO 8] | 2.021 | 2.021 | 2.021 | 
KYKQKRRSYK [SEQ ID NO 16, Group 2 peptide, 8th amino acid serine (S)] | 2.403 | 2.467 | 2.606 | Alveolar bone regeneration ([4]; collagen sponge with 50 μg peptide at defect, hematoxylin/eosin, FIG. 4): alveolar bone was regenerated in most of the damage periodontium; Incorporation of new periodontal ligament fiber bundle into alveolar bone and cementum [4, 5]: A new periodontal ligament fiber bundle was vertically incorporated in the newly formed alveolar bone and cementum; New cementum-like tissue formation [4, 5]: new cementum-like tissue was observed along a tooth root surface; New periodontal ligament-like tissue formation [4, 5]: new periodontal ligament-like tissue formation was also observed; Incorporation of new periodontal ligament into alveolar bone and cementum [4, 6]: New periodontal ligament was incorporated in the newly formed alveolar bone and cementum; New cementum-like tissue formation [4, 6]: new cementum-like tissue was observed along a tooth root surface; New periodontal ligament-like tissue formation [4, 6]: new periodontal ligament-like tissue formation was also observed
KYKQRRRNYK [SEQ ID NO 4] | 2.702 | 2.702 | 2.702 | 
KYKQKKKNYK [SEQ ID NO 5] | 2.67 | 2.67 | 2.67 | 
KYKQKRKSYK [SEQ ID NO 14] | 2.836 | 2.836 | 2.836 | 
KYKQRRKNYK [SEQ ID NO 3] | 2.572 | 2.572 | 2.572 | 
KYKQKKKSYK [SEQ ID NO 13] | 2.525 | 2.525 | 2.525 | 
KYKQKKRNYK [SEQ ID NO 7, Group 1 peptide, 8th amino acid asparagine (N)] | 2.329 | 2.451 | 2.215 | 
KYKQRKKSYK [SEQ ID NO 9] | 2.211 | 2.211 | 2.211 | 
